# Test results published in ChEMBL document CHEMBL1201862, “PubChem BioAssay data set” (2004).
#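 Following 48 hours of exposure in 96-well plates, responses at five concentrations were used to interpolate endpoints linearly. GI50 marks 50% less growth.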 Active and inactive are the calls of the source. No stated cut-off is given here; in the data, active = GI50 up to about 1.1 µM and inactive = higher.
# Columns and labels:
# Assay in all cases: inhibition of tumour cell growth, NCI panel, 48 h
# A498 = test system: A498
# COLO 205 = test system: COLO 205
# DU-145 = test system: DU-145
# MDA-MB-231 = test system: MDA-MB-231
# MDA-MB-435 = test system: MDA-MB-435
# Malme-3M = test system: Malme-3M
# NCI-H226 = test system: NCI-H226
# NCI-H522 = test system: NCI-H522
# NCI/ADR-RES = test system: NCI/ADR-RES
# PC-3 = test system: PC-3
# RXF 393 = test system: RXF 393
# SF-539 = test system: SF-539
# SK-MEL-2 = test system: SK-MEL-2
# SN12C = test system: SN12C
# SNB-75 = test system: SNB-75
# SR = test system: SR
# U-251 = test system: U-251
# UACC-257 = test system: UACC-257
Compound,GI50 (A498),GI50 (COLO 205),GI50 (DU-145),GI50 (MDA-MB-231),GI50 (MDA-MB-435),GI50 (Malme-3M),GI50 (NCI-H226),GI50 (NCI-H522),GI50 (NCI/ADR-RES),GI50 (PC-3),GI50 (RXF 393),GI50 (SF-539),GI50 (SK-MEL-2),GI50 (SN12C),GI50 (SNB-75),GI50 (SR),GI50 (U-251),GI50 (UACC-257)
Nc1ccc2nc(-c3ccccn3)c(-c3ccccn3)nc2c1,> 100 µM (inactive),> 100 µM (inactive),> 100 µM (inactive),> 100 µM (inactive),> 100 µM (inactive),> 100 µM (inactive),> 100 µM (inactive),> 100 µM (inactive),> 100 µM (inactive),> 100 µM (inactive),> 100 µM (inactive),> 100 µM (inactive),> 100 µM (inactive),> 100 µM (inactive),> 100 µM (inactive),> 100 µM (inactive),> 100 µM (inactive),> 100 µM (inactive)
COC(=O)/C=C1\C(=O)Nc2ccc(Br)cc21,5.22 µM (inactive),1.67 µM (inactive),1.86 µM (inactive),2.51 µM (inactive),1.87 µM (inactive),2.33 µM (inactive),1.72 µM (inactive),0.743 µM (active),1.91 µM (inactive),1.43 µM (inactive),1.54 µM (inactive),–,0.493 µM (active),1.62 µM (inactive),1.99 µM (inactive),0.925 µM (active),2.03 µM (inactive),1.37 µM (inactive)
Cc1ccc2c(c1)C(=O)C(Cc1ccccc1C(=O)O)C2 (stereo not given),> 100 µM (inactive),> 100 µM (inactive),> 100 µM (inactive),> 100 µM (inactive),> 100 µM (inactive),> 100 µM (inactive),> 100 µM (inactive),> 100 µM (inactive),> 100 µM (inactive),> 100 µM (inactive),> 100 µM (inactive),> 100 µM (inactive),> 100 µM (inactive),> 100 µM (inactive),> 100 µM (inactive),> 100 µM (inactive),> 100 µM (inactive),> 100 µM (inactive)
O=C(/C=C/c1ccccc1)Oc1ccc(C(=O)/C=C/c2ccccc2)cc1,> 10 µM (inactive),13.9 µM (inactive),10.3 µM (inactive),13.2 µM (inactive),4.65 µM (inactive),> 10 µM (inactive),34.4 µM (inactive),11.4 µM (inactive),12.1 µM (inactive),9.31 µM (inactive),23.1 µM (inactive),3.24 µM (inactive),22.4 µM (inactive),10.3 µM (inactive),12.5 µM (inactive),2.1 µM (inactive),–,13.6 µM (inactive)
Cc1ccc2c(c1C)C(=O)/C(=C/c1cccc(C)c1C(=O)O)C2,> 45.1 µM (inactive),> 100 µM (inactive),> 100 µM (inactive),> 62.7 µM (inactive),52.7 µM (inactive),71 µM (inactive),43.1 µM (inactive),40.1 µM (inactive),59.8 µM (inactive),57.5 µM (inactive),63.1 µM (inactive),69.2 µM (inactive),> 83.6 µM (inactive),> 71.4 µM (inactive),69.3 µM (inactive),> 60.5 µM (inactive),79.1 µM (inactive),57.9 µM (inactive)
N#Cc1c(N2CCCC2)ncn(-c2ccccc2)c1=S,> 100 µM (inactive),> 100 µM (inactive),> 100 µM (inactive),> 100 µM (inactive),> 100 µM (inactive),> 100 µM (inactive),> 100 µM (inactive),> 100 µM (inactive),> 100 µM (inactive),> 100 µM (inactive),> 100 µM (inactive),> 100 µM (inactive),> 100 µM (inactive),> 100 µM (inactive),94.8 µM (inactive),> 100 µM (inactive),> 100 µM (inactive),> 100 µM (inactive)
O=C1NC(=O)C(c2c[nH]c3cc(Br)ccc23)=C1c1cnc[nH]1,14.5 µM (inactive),15.6 µM (inactive),60.5 µM (inactive),27.9 µM (inactive),25.1 µM (inactive),> 100 µM (inactive),1.47 µM (inactive),31.8 µM (inactive),> 100 µM (inactive),24.7 µM (inactive),39 µM (inactive),21.9 µM (inactive),22.9 µM (inactive),53.3 µM (inactive),> 100 µM (inactive),31.3 µM (inactive),32.5 µM (inactive),16 µM (inactive)
CC(=O)CCNc1ccc(-c2cc(-c3ccc(N(C)C)cc3)nc3ccc4ccccc4c23)cc1,43.8 µM (inactive),26.9 µM (inactive),> 57.5 µM (inactive),> 75 µM (inactive),> 60.7 µM (inactive),> 67.8 µM (inactive),> 41.5 µM (inactive),> 100 µM (inactive),97.9 µM (inactive),13.2 µM (inactive),12.3 µM (inactive),> 53.7 µM (inactive),51.1 µM (inactive),33.5 µM (inactive),9.84 µM (inactive),7.11 µM (inactive),> 84.9 µM (inactive),> 100 µM (inactive)
CN1C[C@@H]2CCCN2P1Oc1cccc2cccnc12 (stereo not given in full),> 100 µM (inactive),30.5 µM (inactive),83.4 µM (inactive),42.6 µM (inactive),45.6 µM (inactive),25.8 µM (inactive),80.9 µM (inactive),18.1 µM (inactive),19.8 µM (inactive),27.5 µM (inactive),> 100 µM (inactive),44.9 µM (inactive),50.7 µM (inactive),22.9 µM (inactive),> 100 µM (inactive),25.7 µM (inactive),35.2 µM (inactive),29.4 µM (inactive)
COc1ccc(/C=C2\CN(C)C/C(=C\c3ccc(OC)c(OC)c3OC)C2=O)c(OC)c1OC,0.146 µM (active),0.238 µM (active),0.333 µM (active),0.282 µM (active),0.0199 µM (active),0.171 µM (active),0.394 µM (active),0.184 µM (active),0.145 µM (active),0.231 µM (active),0.167 µM (active),0.102 µM (active),0.363 µM (active),0.101 µM (active),0.973 µM (active),0.0658 µM (active),0.0333 µM (active),0.249 µM (active)
CC(=O)OC1CC[C@]2(C)C3CC[C@@]4(C)C(CCC4[C@H](C)CCCC(C)C)[C@@H]3CCC2(Br)C1 (stereo not given in full),8.13 µM (inactive),9.62 µM (inactive),> 50 µM (inactive),13.7 µM (inactive),8.83 µM (inactive),10.9 µM (inactive),> 50 µM (inactive),10.3 µM (inactive),41 µM (inactive),10.9 µM (inactive),12.1 µM (inactive),9.18 µM (inactive),–,22.5 µM (inactive),> 50 µM (inactive),9.44 µM (inactive),17.9 µM (inactive),31.7 µM (inactive)
CC(C)[C@@H]1CC[C@@H](C)C[C@H]1OC(=O)/C=C1\C(C(=O)O[C@@H]2C[C@H](C)CC[C@H]2C(C)C)[C@H]2C=C[C@@H]1O2 (stereo not given in full),> 100 µM (inactive),64.3 µM (inactive),57.9 µM (inactive),87.5 µM (inactive),59 µM (inactive),> 100 µM (inactive),38.3 µM (inactive),22.5 µM (inactive),> 100 µM (inactive),37.3 µM (inactive),> 100 µM (inactive),> 100 µM (inactive),–,57.8 µM (inactive),> 100 µM (inactive),43 µM (inactive),51.4 µM (inactive),35 µM (inactive)
Cc1sc2nc(-c3ccc(Cl)c([N+](=O)[O-])c3)c(/C=N/NC(=N)N)n2c1C,1.66 µM (inactive),0.282 µM (active),1.93 µM (inactive),0.615 µM (active),1.51 µM (inactive),2 µM (inactive),1.61 µM (inactive),1.71 µM (inactive),2.04 µM (inactive),1.52 µM (inactive),1.52 µM (inactive),1.64 µM (inactive),1.32 µM (inactive),1.31 µM (inactive),–,0.229 µM (active),0.341 µM (active),1.29 µM (inactive)
Cc1nnc(-n2c(O)cc(=O)n(-c3ccccc3)c2=S)nc1/C=C/c1ccc(N(C)C)cc1,27.1 µM (inactive),7.23 µM (inactive),26.1 µM (inactive),> 35.6 µM (inactive),5.62 µM (inactive),2.69 µM (inactive),32.3 µM (inactive),1.32 µM (inactive),14.3 µM (inactive),8.41 µM (inactive),17.5 µM (inactive),–,10.9 µM (inactive),> 43.5 µM (inactive),4.38 µM (inactive),5.02 µM (inactive),10.1 µM (inactive),15.5 µM (inactive)
Clc1ccc(-c2nn3c(C45CC6CC(CC(C6)C4)C5)nnc3s2)cc1,50.2 µM (inactive),> 100 µM (inactive),> 100 µM (inactive),55.6 µM (inactive),> 100 µM (inactive),> 100 µM (inactive),> 100 µM (inactive),> 100 µM (inactive),> 100 µM (inactive),> 100 µM (inactive),> 100 µM (inactive),> 100 µM (inactive),> 100 µM (inactive),> 100 µM (inactive),> 100 µM (inactive),> 100 µM (inactive),> 100 µM (inactive),–
O=C(O)c1cc(-c2ccncc2)nc2ccccc12,> 100 µM (inactive),> 100 µM (inactive),> 100 µM (inactive),> 100 µM (inactive),> 100 µM (inactive),> 100 µM (inactive),> 100 µM (inactive),> 100 µM (inactive),> 100 µM (inactive),> 100 µM (inactive),> 100 µM (inactive),> 100 µM (inactive),> 100 µM (inactive),> 100 µM (inactive),–,> 100 µM (inactive),> 100 µM (inactive),> 100 µM (inactive)
